Results: patent publication US7771935B2, “Evolving new molecular function” (President and Fellows of Harvard College, priority 2002, dated 2010)

Assays:
Taq DNA polymerase [1] = target: T1, Taq DNA polymerase (Thermus aquaticus, UniProt P19821); assay: PCR incorporation of modified nucleotide triphosphates by Taq DNA polymerase; format: biochemical; details: 30 PCR cycles; pUC19 template; three natural dNTPs
Description: The ability of the modified nucleotide triphosphates containing metal-binding functionality shown in FIG. 75 to be accepted by DNA polymerase enzymes was studied. Synthetic nucleotide triphosphates were purified by ion exchange and reverse-phase HPLC and were added to PCR reactions containing Taq DNA polymerase, three natural deoxynucleotide triphosphates, pUC19 template DNA, and two DNA primers. The primers were chosen to generate PCR products ranging from 50 to 200 base pairs in length. Control PCR reactions contained the four natural deoxynucleotide triphosphates and no non-natural nucleotides.

chymotrypsin = target: T2, chymotrypsin (Bos taurus, UniProt P00766, DEL14-15/DEL147-148); details: known binding of the free ligand; cited from earlier work
T2 construct: purchased Sigma

Taq DNA polymerase [2] = target: T1, Taq DNA polymerase; details: cited from earlier work
Vent DNA polymerase = Vent DNA polymerase (Thermococcus litoralis, UniProt P30317, DEL1082-1471/DEL495-1032); details: PCR conditions; cited from earlier work
[3] = target: glutathione S-transferase (GST); details: read-out: Kd of binding to glutathione S-transferase (GST); cited from earlier work
[4] = Bromide structural and configurational stability under the reaction conditions (MALDI-TOF, chiral HPLC); format: physicochemical; details: 16 hours under the reaction conditions; both enantiomers
papain = target: T3, papain (Carica papaya, UniProt P00784); details: known binding of the free ligand; cited from earlier work
T3 construct: purchased Sigma
T3 sequence (P00784 134-345): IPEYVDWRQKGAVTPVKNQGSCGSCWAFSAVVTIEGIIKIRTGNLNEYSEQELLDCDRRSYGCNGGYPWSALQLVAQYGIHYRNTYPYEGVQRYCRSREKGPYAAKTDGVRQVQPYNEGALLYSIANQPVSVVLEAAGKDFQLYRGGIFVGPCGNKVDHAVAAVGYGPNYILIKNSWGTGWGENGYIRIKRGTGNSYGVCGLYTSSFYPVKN

T1 sequence (P19821 whole entry): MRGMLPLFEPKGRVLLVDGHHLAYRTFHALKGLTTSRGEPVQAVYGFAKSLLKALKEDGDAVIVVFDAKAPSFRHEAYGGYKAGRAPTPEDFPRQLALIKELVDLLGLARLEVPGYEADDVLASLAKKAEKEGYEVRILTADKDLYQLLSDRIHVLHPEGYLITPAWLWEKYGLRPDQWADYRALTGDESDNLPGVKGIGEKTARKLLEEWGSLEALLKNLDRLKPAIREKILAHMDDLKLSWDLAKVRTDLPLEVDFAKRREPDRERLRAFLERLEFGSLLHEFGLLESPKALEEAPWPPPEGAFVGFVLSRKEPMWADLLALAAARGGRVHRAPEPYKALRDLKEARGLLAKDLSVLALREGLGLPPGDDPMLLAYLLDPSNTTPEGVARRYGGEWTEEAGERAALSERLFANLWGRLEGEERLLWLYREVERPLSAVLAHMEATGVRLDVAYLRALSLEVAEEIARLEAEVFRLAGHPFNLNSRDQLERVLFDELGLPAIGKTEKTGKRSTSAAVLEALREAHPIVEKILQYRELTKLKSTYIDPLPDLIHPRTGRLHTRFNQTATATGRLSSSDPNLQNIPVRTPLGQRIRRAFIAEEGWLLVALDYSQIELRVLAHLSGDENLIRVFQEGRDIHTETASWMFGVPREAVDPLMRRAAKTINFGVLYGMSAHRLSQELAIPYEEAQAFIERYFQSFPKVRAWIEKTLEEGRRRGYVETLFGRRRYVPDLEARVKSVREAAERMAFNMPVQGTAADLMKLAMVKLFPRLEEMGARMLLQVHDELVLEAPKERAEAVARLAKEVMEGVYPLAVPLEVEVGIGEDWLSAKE
Vent DNA polymerase, sequence (P30317 other isoform, or with tags, fused parts or gaps DEL495-1032/DEL1082-1471): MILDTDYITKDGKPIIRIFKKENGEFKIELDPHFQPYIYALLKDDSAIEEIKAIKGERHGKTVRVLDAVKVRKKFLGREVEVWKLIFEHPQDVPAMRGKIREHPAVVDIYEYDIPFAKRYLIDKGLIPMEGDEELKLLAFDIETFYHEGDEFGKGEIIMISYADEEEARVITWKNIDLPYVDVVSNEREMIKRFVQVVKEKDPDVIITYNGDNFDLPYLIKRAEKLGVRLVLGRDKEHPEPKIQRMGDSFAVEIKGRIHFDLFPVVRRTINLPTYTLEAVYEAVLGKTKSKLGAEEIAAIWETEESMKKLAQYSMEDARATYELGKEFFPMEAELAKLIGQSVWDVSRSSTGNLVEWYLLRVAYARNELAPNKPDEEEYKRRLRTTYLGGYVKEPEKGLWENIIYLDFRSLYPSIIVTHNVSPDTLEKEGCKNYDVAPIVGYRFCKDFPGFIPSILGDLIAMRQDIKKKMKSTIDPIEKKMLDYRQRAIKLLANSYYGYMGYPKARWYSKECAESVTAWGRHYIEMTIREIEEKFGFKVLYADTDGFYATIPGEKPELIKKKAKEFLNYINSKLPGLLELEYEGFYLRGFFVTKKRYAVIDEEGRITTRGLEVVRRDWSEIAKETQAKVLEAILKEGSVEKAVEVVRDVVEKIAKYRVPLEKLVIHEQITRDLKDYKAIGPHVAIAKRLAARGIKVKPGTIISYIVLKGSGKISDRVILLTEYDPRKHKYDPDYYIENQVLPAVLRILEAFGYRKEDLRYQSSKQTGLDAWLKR

| SMILES | incorporation by Taq DNA polymerase (Taq DNA polymerase [1]) | acceptance by Taq DNA polymerase (Taq DNA polymerase [2]) | other results |
| --- | --- | --- | --- |
| Cc1nc2c(N)ncnc2n1C1CC(O)C(COP(=O)(O)OP(=O)(O)OP(=O)(O)O)O1 (stereo not drawn) [8-modified adenosine triphosphate 32] | not accepted |  |  |
| O=C(O)CCCC[C@@H]1SC[C@@H]2NC(=O)N[C@@H]21 [biotin] |  |  | affinity for chymotrypsin (chymotrypsin): no significant affinity |
| NCCCc1cn(C2CC(O)C(CO)O2)c2ncnc(N)c12 (stereo not drawn) [analog 11] |  | acceptance |  |
| CCc1nc2c(N)ncnc2n1C1CC(O)C(COP(=O)(O)OP(=O)(O)OP(=O)(O)O)O1 (stereo not drawn) [8-modified adenosine triphosphate 33] | not accepted |  |  |
| NCC#Cc1cn([C@H]2C[C@H](O)[C@@H](CO)O2)c2ncnc(N)c12 [uridine analog 13, 7-aminopropynyl-7-deazadeoxyadenosine] | efficiently incorporated | acceptance |  |
| CCCC#Cc1cn([C@H]2C[C@H](O)[C@@H](CO)O2)c(=O)[nH]c1=O [analog 1, 5-(1-pentynyl)-deoxyuridine] |  |  | acceptance by Vent DNA polymerase (Vent DNA polymerase): acceptance |
| NC(=O)CNC(=O)[C@H](CS)NC(=O)CC[C@H](N)C(=O)O [glutathione amide] |  |  | Kd [3]: ~10 µM |
| CNC(=O)C(C)Br (racemic) [N-methyl 2-bromopropionamide] |  |  | configurational stability by chiral HPLC [4]: No change in retention time |
| NCC=Cc1cn(C2CC(O)C(CO)O2)c2ncnc(N)c12 (stereo not drawn) [analog 12] |  | acceptance |  |
| CC(C)C[C@H](NC(=O)[C@@H](NC(=O)N[C@@H](Cc1ccccc1)C(=O)O)[C@@H]1CCN=C(N)N1)C(=O)N[C@H](C=O)Cc1ccccc1 [chymostatin] |  |  | affinity for chymotrypsin (chymotrypsin): binds to both proteases; affinity for papain (papain): binds to both proteases |
